Reference: PubChem BioAssay (NCI)
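Dose response: 5 concentrations. Exposure: 48 h. Format: 96-well plates. Endpoint: linear interpolation; highest concentration if not reached. TGI is the concentration that stops growth completely.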

Assays:
Test in all cases: NCI tumour cell line growth inhibition, 48 h
786-0 renal = system: 786-0 renal
A498 renal = system: A498 renal
A549 NSCLC = system: A549 NSCLC
ACHN renal = system: ACHN renal
BT-549 breast = system: BT-549 breast
CAKI-1 renal = system: CAKI-1 renal
CCRF-CEM leukemia = system: CCRF-CEM leukemia
COLO 205 colon = system: COLO 205 colon
DU-145 prostate = system: DU-145 prostate
EKVX NSCLC = system: EKVX NSCLC
HCT-116 colon = system: HCT-116 colon
HCT-15 colon = system: HCT-15 colon
HL-60(TB) leukemia = system: HL-60(TB) leukemia
HOP-62 NSCLC = system: HOP-62 NSCLC
HS 578T breast = system: HS 578T breast
HT29 colon = system: HT29 colon
IGROV1 ovarian = system: IGROV1 ovarian
KM12 colon = system: KM12 colon
LOX IMVI melanoma = system: LOX IMVI melanoma
M14 melanoma = system: M14 melanoma
MALME-3M melanoma = system: MALME-3M melanoma
MCF7 breast = system: MCF7 breast
MDA-MB-231 breast = system: MDA-MB-231 breast
MDA-MB-435 = system: MDA-MB-435
MDA-N = system: MDA-N
MOLT-4 leukemia = system: MOLT-4 leukemia
NCI-H226 lung = system: NCI-H226 lung
NCI-H23 lung = system: NCI-H23 lung
NCI-H522 lung = system: NCI-H522 lung
NCI/ADR-RES ovarian = system: NCI/ADR-RES ovarian
OVCAR-4 ovarian = system: OVCAR-4 ovarian
OVCAR-5 ovarian = system: OVCAR-5 ovarian
OVCAR-8 ovarian = system: OVCAR-8 ovarian
PC-3 prostate = system: PC-3 prostate
RXF 393 renal = system: RXF 393 renal
SF-268 CNS = system: SF-268 CNS
SF-295 CNS = system: SF-295 CNS
SF-539 CNS = system: SF-539 CNS
SK-MEL-2 melanoma = system: SK-MEL-2 melanoma
SK-MEL-28 melanoma = system: SK-MEL-28 melanoma
SK-MEL-5 melanoma = system: SK-MEL-5 melanoma
SK-OV-3 ovarian = system: SK-OV-3 ovarian
SN12C renal = system: SN12C renal
SNB-19 CNS = system: SNB-19 CNS
SNB-75 CNS = system: SNB-75 CNS
SW-620 colon = system: SW-620 colon
T-47D breast = system: T-47D breast
TK-10 renal = system: TK-10 renal
U251 CNS = system: U251 CNS
UACC-257 melanoma = system: UACC-257 melanoma
UACC-62 melanoma = system: UACC-62 melanoma
UO-31 renal = system: UO-31 renal
HCC-2998 colon = system: HCC-2998 colon
HOP-92 NSCLC = system: HOP-92 NSCLC
K-562 leukemia = system: K-562 leukemia
NCI-H460 lung = system: NCI-H460 lung
OVCAR-3 ovarian = system: OVCAR-3 ovarian
RPMI-8226 leukemia = system: RPMI-8226 leukemia
SR leukemia = system: SR leukemia

Measured: TGI

COC(=O)c1cc(OS(=O)(=O)C(F)(F)F)c(=O)n2c1CCCC2
not listed: HCC-2998 colon | HOP-92 NSCLC | K-562 leukemia | NCI-H460 lung | OVCAR-3 ovarian | RPMI-8226 leukemia | SR leukemia
> 100 µM: all other assays above

O/N=C1\CC2(N3CCOCC3)CCC1(c1ccccc1)CC2
not listed: MDA-MB-231 breast
> 100 µM: all other assays above
